Measured values reported in patent publication US20260159520A1, “HETEROBIFUNCTIONAL COMPOUNDS AND METHODS OF TREATING DISEASE” (Halda Therapeutics OpCo, Inc., priority 2022, published 2026).

Assays:
Assay type in all cases: cell-based
[1] = test system: T-Rex 293 cell line SC3 cells having increased expression of androgen receptor protein; assay: Cellular growth inhibition, T-Rex 293 SC3 cells with doxycycline (increased androgen receptor expression); settings: with 10 ng/mL doxycycline (increased androgen receptor), 72 hours, CellTiter-Glo 2.0
Summary of the method: (§1)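 Growth inhibition is measured in an inducible AR-expressing T-Rex 293 clone, SC3, cultured with or without 10 ng/mL doxycycline in hormone-depleted medium. Test compounds are applied for 72 hours. GI50 values derive from CellTiter-Glo 2.0 signal fitted by four-parameter regression.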

[2] = test system: T-Rex 293 cell line SC3 cells lacking increased expression of androgen receptor protein; assay: Cellular growth inhibition, T-Rex 293 SC3 cells without doxycycline; settings: not exposed to doxycycline, 72 hours, CellTiter-Glo 2.0
Summary of the method: as §1

VCaP cells = assay: Cellular growth inhibition assay for VCaP cells; settings: Homo sapiens, 72 hours, CellTiter-Glo 2.0
T47D cells = assay: Cellular growth inhibition assay for T47D cells; settings: Homo sapiens, 72 hours, CellTiter-Glo 2.0
Summary of the method: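 Cells are plated at 3000/well and allowed 24 h before treatment. Test compound in medium containing 0.5% DMSO is then added, with DMSO-only wells as negative control, and plates are incubated 72 h at 37 °C. ATP luminescence (CellTiter-Glo 2.0) is then fitted to four parameters to derive GI50.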

| GI50 (VCaP cells) [nM] | GI50 (T47D cells) [nM] | SMILES | GI50 [1] [nM] | GI50 [2] [nM] |
| --- | --- | --- | --- | --- |
| 1000 to 3500 | 500 to 1500 | Cc1ncc(-c2nc(Nc3ccc(C(=O)N4CC[C@H](N(C)CCOC5CCN(c6ncc(C(=O)N[C@H]7C(C)(C)[C@H](Oc8ccc(C#N)c(Cl)c8)C7(C)C)cn6)CC5)C4)cc3)ncc2F)n1C(C)C [Compound I-95, N-[3-(3-chloro-4-cyano-phenoxy)-2,2,4,4-tetramethyl-cyclobutyl]-2-[4-[2-[[(3S)-1-[4-[[5-fluoro-4-(3-isopropyl-2-methyl-imidazol-4-yl)pyrimidin-2-yl]amino]benzoyl]pyrrolidin-3-yl]-methyl-amino]ethoxy]-1-piperidyl]pyrimidine-5-carboxamide] | 1000 to 3500 | 1000 to 3500 |
| 1000 to 3500 | 1500 to 3000 | Cc1ncc(-c2nc(Nc3ccc(C(=O)N4CC[C@H](N(C)CCOCCOCCOCCOCCOC5CCN(c6ncc(C(=O)N[C@H]7C(C)(C)[C@H](Oc8ccc(C#N)c(Cl)c8)C7(C)C)cn6)CC5)C4)cc3)ncc2F)n1C(C)C [Compound I-97] | 1000 to 3500 | 1000 to 3500 |
| < 100 | < 500 | CCc1cnn2c(NCc3ccc(OCCN4CCN(CC5CCN(c6ncc(C(=O)N[C@H]7C(C)(C)[C@H](Oc8ccc(C#N)c(Cl)c8)C7(C)C)cn6)CC5)CC4)nc3)cc(N3CCCC[C@H]3CCO)nc12 [Compound I-41] | < 100 | 100 to 1000 |

Further lines, the compound ahead of its results:

| SMILES | GI50 (VCaP cells) [nM] | GI50 (T47D cells) [nM] | GI50 [1] [nM] | GI50 [2] [nM] |
| --- | --- | --- | --- | --- |
| CCc1cnn2c(NCc3ccc(OCCN4CCN(CC5CCN(c6ncc(C(=O)N[C@H]7C(C)(C)[C@H](Oc8ccc(C#N)c(Cl)c8)C7(C)C)cn6)CC5)CC4)nc3)cc(-c3ccccc3)nc12 [Compound I-47, N-((1r,3r)-3-(3-chloro-4-cyanophenoxy)-2,2,4,4-tetramethylcyclobutyl)-2-(4-((4-(2-((5-(((3-ethyl-5-phenylpyrazolo[1,5-a]pyrimidin-7-yl)amino)methyl)pyridin-2-yl)oxy)ethyl)piperazin-1-yl)methyl)piperidin-1-yl)pyrimidine-5-carboxamide] | > 3500 | > 3000 | 100 to 1000 | > 3500 |
| CCc1cnn2c(NCc3ccc(N4CC(OCCN5CC6CN(c7ncc(C(=O)N[C@H]8C(C)(C)[C@H](Oc9ccc(C#N)c(Cl)c9)C8(C)C)cn7)CC6C5)C4)nc3)cc(N3CCCC[C@H]3CCO)nc12 (stereo partly drawn) [Compound I-72] | 100 to 1000 | 1500 to 3000 | 100 to 1000 | 100 to 1000 |
| CCc1cnn2c(NCc3ccc(OCC4CCN(CC5CCN(c6ncc(C(=O)N[C@H]7C(C)(C)[C@H](Oc8ccc(C#N)c(Cl)c8)C7(C)C)cn6)CC5)CC4)nc3)cc(N3CCCC[C@H]3CCO)nc12 [Compound I-51] | < 100 | < 500 | < 100 | 100 to 1000 |
